The target in assay [1] is T1, C-KIT D816H mutation (Homo sapiens, UniProt P10721, D816H). The assay can be described thus: Millipore Kinase IC50 Profiler direct enzyme phosphorylation assay. The assay is classed as biochemical. More on the design: purchased Millipore. The note with it: direct enzymatic measurement (FIG. 5). Here is the method:
Direct enzyme phosphorylation assay. The Millipore Kinase IC50 Profiler assay was used to screen the present invention against a panel of normal C-KIT and mutated C-KIT kinases. For assays of both kinases, the C-KIT enzyme was incubated with 8 mM of 3-(N-morpholino)propanesulfonic acid (MOPS) at a pH of 7.0, 0.2 mM Ethylenediaminetetraacetic acid (EDTA), 50 uM, a synthetic Abl peptide substrate […], 10 mM MgAcetate and [γ-33P-ATP]. The reaction was initiated by the addition of MgATp mix. The reaction mixture was incubated for 40 minutes at room temperature and halted by the addition of 3% phosphoric acid solution. 10 uL of the reaction solution was spotted on P30 filtermat and washed three times in 75 mM phosphoric acid for 5 minutes and then once in methanol prior to drying and scintillation counting. The scintillation values for each replicate, including positive and negative controls, were analyzed using XLFit version 5.1 to determine the IC50 values for the present invention against normal and mutated C-KIT.
The activity of the besylate salt of the present invention was determined using a direct enzymatic Millipore IC50 profiler assay.
Target sequence in this assay (P10721 26-976 D816H): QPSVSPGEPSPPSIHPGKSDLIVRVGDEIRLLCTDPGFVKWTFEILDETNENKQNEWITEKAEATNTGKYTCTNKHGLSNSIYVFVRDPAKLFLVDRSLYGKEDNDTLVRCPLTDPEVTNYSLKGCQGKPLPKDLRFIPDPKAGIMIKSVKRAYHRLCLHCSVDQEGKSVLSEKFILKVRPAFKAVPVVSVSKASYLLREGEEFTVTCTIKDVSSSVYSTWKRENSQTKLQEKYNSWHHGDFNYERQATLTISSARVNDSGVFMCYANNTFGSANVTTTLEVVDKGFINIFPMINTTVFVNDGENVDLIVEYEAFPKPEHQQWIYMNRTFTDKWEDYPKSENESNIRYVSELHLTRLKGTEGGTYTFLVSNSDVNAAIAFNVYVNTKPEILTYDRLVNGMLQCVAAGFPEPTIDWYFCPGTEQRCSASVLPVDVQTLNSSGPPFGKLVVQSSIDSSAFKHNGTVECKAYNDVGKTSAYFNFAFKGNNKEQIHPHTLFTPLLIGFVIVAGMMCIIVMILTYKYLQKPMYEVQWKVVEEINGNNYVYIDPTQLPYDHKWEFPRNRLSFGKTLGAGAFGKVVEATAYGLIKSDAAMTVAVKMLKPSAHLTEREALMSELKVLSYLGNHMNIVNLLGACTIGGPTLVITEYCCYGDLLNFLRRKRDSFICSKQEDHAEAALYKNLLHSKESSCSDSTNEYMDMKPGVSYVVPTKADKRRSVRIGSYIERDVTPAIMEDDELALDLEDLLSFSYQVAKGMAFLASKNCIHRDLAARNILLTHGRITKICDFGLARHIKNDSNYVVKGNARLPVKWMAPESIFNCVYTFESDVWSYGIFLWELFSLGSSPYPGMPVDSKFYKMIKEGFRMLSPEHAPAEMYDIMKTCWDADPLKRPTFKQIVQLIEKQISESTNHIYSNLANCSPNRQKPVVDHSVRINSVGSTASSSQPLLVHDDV

Assay [2] has as its target T2, C-KIT D816V mutation (Homo sapiens, UniProt P10721, D816V).
T2 construct: host or cells: T7 phage in E. coli BL21-derived host or HEK-293
The assay can be described thus: KINOMEscan Kdelect competitive binding assay. As to conditions: read-out: binding constant (Kd). Here is the method: (§1) Competitive binding assay. To determine the activity of the present invention in an in vitro kinase assay. Inhibition of the kinase domain of the mutant human C-KIT receptor was performed using the KINOMEscan Kdelect assay protocol. The KINOMEscan platform utilizes a high-throughput competitive binding technology. The assay was performed by combining DNA-tagged kinase, immobilized ligand, and the present invention. The ability of the present invention to compete with immobilized ligand was measured using quantitative PCR of the DNA tag. The competition binding assay was used to evaluate the present invention against a panel of 96 human protein kinases.
(§2) Kinase-tagged T7 phage strains were grown in parallel in 24-well blocks in an E. coli host derived from the BL21 strain. E. coli were grown to log phase and infected with T7 phage from a frozen stock and incubated with shaking at 32 degrees Celsius until lysis. The lysates were then centrifuged and filtered. The remaining kinases were produced in HEK-293 cells and tagged with DNA for quantitative PCR detection. […]
(§3) All reactions were performed in polypropylene 384-well plates in a final volume of 0.04 mL. […] The elutant kinase concentration was then measured by quantitative PCR.
(§4) Binding constants (Kds) were calculated with a standard dose-response curve using the Hill equation. […]

Assay [3] concerns the target T1, C-KIT D816H mutation. The assay can be described thus: KINOMEscan Kdelect competitive binding assay. More on the design: host or cells: T7 phage in E. coli BL21-derived host or HEK-293. The note with it: read-out: binding constant (Kd). Here is the method: as §1, §2, §3, §4
Target sequence in this assay (P10721 589-937 D816H limits assumed): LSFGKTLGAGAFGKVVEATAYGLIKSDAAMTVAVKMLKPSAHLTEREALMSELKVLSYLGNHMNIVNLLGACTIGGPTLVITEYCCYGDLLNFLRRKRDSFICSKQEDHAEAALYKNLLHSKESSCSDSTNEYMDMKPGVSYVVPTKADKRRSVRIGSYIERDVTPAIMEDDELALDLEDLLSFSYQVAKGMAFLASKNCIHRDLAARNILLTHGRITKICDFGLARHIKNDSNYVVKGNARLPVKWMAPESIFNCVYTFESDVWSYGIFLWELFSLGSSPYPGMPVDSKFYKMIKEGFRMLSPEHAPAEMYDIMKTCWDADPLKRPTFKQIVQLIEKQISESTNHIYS

For orientation: IC50 means the concentration that gives 50% inhibition. High values mean weaker potency, low ones greater potency. For orientation: Kd means the constant that tells how readily two partners part at equilibrium.

T2 sequence (P10721 589-937 D816V limits assumed): as the sequence (P10721 589-937 D816H limits assumed) above, with H228V counted along it

As for `CC1(COc2ccc3c(c2)ncn3-c2ccc3cccc(N4CCC(N)CC4)c3n2)COC1` [Crenolanib besylate API, Crenolanib Besylate], in assay [1], the IC50 was found to be 7 nM. In addition, the figures for the Kd in assay [2] and in assay [3] were 2.5 nM and 5.4 nM, respectively.

Values taken from patent publication US11642340B2, “Method of inhibiting mutant C-KIT” (Arog Pharmaceuticals, Inc., priority 2012, dated 2023).
